For test [1], the target named is GmolGOBP1 (Grapholita molesta, UniProt H9XTU5). The test can be described thus: Fluorescence competitive binding assay with probe 1-NPN, rGmolGOBP1. As to the method: (§1) Fluorescence binding assays were performed on a Hitachi (Tokyo, Japan) F-4500 fluorescence spectrophotometer with a 1 cm light path fluorimeter quartz cuvette. Both of the slit widths for excitation and emission were 10 nm. 1-N-phenyl-naphthylamine (1-NPN) was dissolved in HPLC purity grade methanol to yield a 1 mM stock solution. […] The probes were excited at 337 nm and emission spectra were recorded between 370 and 550 nm. […] Binding data were collected in three independent measurements.
(§2) Dissociation constants of the complex GmolGOBPs/1-NPN (K1-NPN) were calculated by a nonlinear regression binding curve, using Prism 5.0 (GraphPad Software Inc.).

Test [2] has as its target GmolGOBP2 (Grapholita molesta, UniProt H9XTU6). The test can be described thus: Fluorescence competitive binding assay with probe 1-NPN, rGmolGOBP2 wild-type. As to the method:
as §1, §2

Test [3] addresses rGmolPBP1. More on the design: method as in earlier work. Particulars: cited from earlier work.
The target in test [4] is T1, rGmolGOBP1 (Grapholita molesta, UniProt H9XTU5).
T1 sequence (H9XTU5 21-164): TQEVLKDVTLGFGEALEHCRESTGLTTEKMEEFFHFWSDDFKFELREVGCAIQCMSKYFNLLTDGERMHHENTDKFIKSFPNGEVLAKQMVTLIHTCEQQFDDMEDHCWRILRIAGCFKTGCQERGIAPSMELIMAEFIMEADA
The test can be described thus: 1-NPN fluorescence binding titration of rGmolGOBP1. Particulars: 2 μM protein, 20 mM Tris-HCl pH 7.4; read-out: dissociation constant of 1-NPN. As for the experimental part: (§3) Fluorescence binding assays were performed on a Hitachi (Tokyo, Japan) F-4500 fluorescence spectrophotometer with a 1 cm light path fluorimeter quartz cuvette. Both of the slit widths for excitation and emission were 10 nm. 1-N-phenyl-naphthylamine (1-NPN) was dissolved in HPLC purity grade methanol to yield a 1 mM stock solution. A 2 μM solution of the protein in 20 mM Tris-HCl, pH 7.4, was titrated with aliquots of 1 mM 1-NPN to final concentrations of 1, 2, 4, 6, 8, 10, 12, 14, 16, 18, and 22 μM. The probes were excited at 337 nm and emission spectra were recorded between 370 and 550 nm. All ligands (S1 File) used in competitive binding assays were also dissolved in HPLC purity grade methanol. The final concentrations of sex pheromones were between 1 and 22 μM for each rGmolGOBP protein, whereas the concentrations of 30 synthetic plant volatiles to rGmolGOBP1 and 2 were up to 64 and 100 μM, respectively. Binding data were collected in three independent measurements.
(§4) Dissociation constants of the complex GmolGOBPs/1-NPN (K1-NPN) were calculated by a nonlinear regression binding curve, using Prism 5.0 (GraphPad Software Inc.). […]

Test [5] concerns the target rGmolGOBP2 (Grapholita molesta, UniProt H9XTU6). Kind of test: 1-NPN fluorescence binding titration of rGmolGOBP2. Conditions: 2 μM protein, 20 mM Tris-HCl pH 7.4; read-out: dissociation constant of 1-NPN. As to the method: as §3, §4
Test [6] has as its target GmolGOBP2 V111A (Grapholita molesta, UniProt H9XTU6, V131A). Kind of test: Fluorescence competitive binding assay, GmolGOBP2 mutant V111A. As for the experimental part:
as §3
(§5) Dissociation constants of the complex GmolGOBPs/1-NPN (K1-NPN) were calculated by a nonlinear regression binding curve, using Prism 5.0 (GraphPad Software Inc.). The inhibition constants (Ki) of the competitors were computed from the corresponding IC50 values using the equation: Ki = [IC50]/(1+[1−NPN]/K1−NPN), where [1−NPN] is the free concentration of 1−NPN and K1-NPN is the dissociation constant of the complex protein/1-NPN.
(§6) Gene-specific primers were designed in accordance with the recommended protocols of the TaKaRa MutanBEST Kit (TaKaRa, Shiga, Japan). The GmolGOBP2 coding sequence was mutated to create the three mutants GmolGOBP2 T9A (threonine to alanine at position 9), GmolGOBP2 V111A (valine to alanine at position 111), and GmolGOBP2 V114A (valine to alanine at position 114). Mutations were obtained using the TaKaRa MutanBEST Kit with Pyrobest DNA polymerase with the pMD19-T/GmolGOBP2 plasmid DNA as template. All plasmids containing mutations were verified by DNA sequencing. Mutated protein expression and enrichment were performed as described above for rGmolGOBP1 and 2. After determining concentrations, purified mutants were applied to verify the binding affinities with dodecanol and its analogs in fluorescence ligand-binding assays.

The target in test [7] is GmolGOBP2 V114A (Grapholita molesta, UniProt H9XTU6, V134A). Kind of test: Fluorescence competitive binding assay, GmolGOBP2 mutant V114A. As for the experimental part:
as §3, §5, §6

The target of test [8] is GmolGOBP2 T9A (Grapholita molesta, UniProt H9XTU6, T29A). Kind of test: Fluorescence competitive binding assay, GmolGOBP2 mutant T9A. As for the experimental part: as §3, §5, §6
[9] abbreviates: protein and 1-NPN 2 μM, pH 7.4, calculated from IC50, read-out: GmolGOBP1 Ki.
[10] abbreviates: protein and 1-NPN 2 μM, pH 7.4, displacing half of initial fluorescence, read-out: GmolGOBP1 IC50.
The mark [11] stands for this setting: protein and 1-NPN 2 μM, pH 7.4, calculated from IC50, read-out: GmolGOBP2 Ki.
Where [12] appears, read: protein and 1-NPN 2 μM, pH 7.4, displacing half of initial fluorescence, read-out: GmolGOBP2 IC50.

As a reminder, the Ki is a dissociation constant, usually derived from enzyme kinetics or from competition with a known ligand. Broadly, the IC50 is the concentration that inhibits the measured activity by half.

Where two headings read alike, the source gives them in different places.

Sequence of GmolGOBP2 (H9XTU6 entry or part of it): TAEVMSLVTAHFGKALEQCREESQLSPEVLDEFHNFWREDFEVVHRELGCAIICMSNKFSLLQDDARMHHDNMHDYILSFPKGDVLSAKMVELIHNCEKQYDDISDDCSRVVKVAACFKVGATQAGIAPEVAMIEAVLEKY
Sequence of GmolGOBP2 T9A (H9XTU6 entry or part of it T29A): as the sequence (H9XTU6 entry or part of it) above, with T9A counted along it
Sequence of GmolGOBP2 V111A (H9XTU6 entry or part of it V131A): as the sequence (H9XTU6 entry or part of it) above, with V111A counted along it
Sequence of GmolGOBP2 V114A (H9XTU6 entry or part of it V134A): as the sequence (H9XTU6 entry or part of it) above, with V114A counted along it
Sequence of rGmolGOBP2 (H9XTU6 entry or part of it): as the sequence (H9XTU6 entry or part of it) above

For `CCCCC(CC)CO` (centres unmarked) [2-Ethyl-1-hexanol], the inhibition constant Ki in test [1] (setting [9]) was 24.8 µM. Also, the IC50 in test [1] (setting [10]) was 27 ± 1.81 µM.

As to `CC/C=C\CC1C(=O)CCC1CC(=O)OC` (centres unmarked) [Methyl jasmonate], the Ki is 60.8 µM in test [2] (setting [11]) and 35.8 µM in test [1] (setting [9]). Also, the IC50 in test [2] (setting [12]) worked out at 73.7 ± 5 µM; in test [1] (setting [10]), 38.9 ± 1.56 µM.

Take `CCCCOC(=O)CCC` [Butyl butyrate]: in test [1] (setting [9]), the Ki is 33.1 µM. The IC50 in test [1] (setting [10]) amounted to 36 ± 2.5 µM.

For the compound `COC(=O)c1ccccc1O` [Methyl salicylate], in test [2], the 50% inhibitory concentration (IC50) amounted to 93.7 ± 5.55 µM and the Ki came out at 77.3 µM. In test [1], this compound registered an IC50 of 49.8 ± 6.48 µM and an inhibition constant Ki of 45.8 µM.

`CCCCCC(=O)OCC` [Ethyl hexanoate]: the inhibition constant Ki in test [1] (setting [9]) is 35 µM. Besides, the IC50 in test [1] (setting [10]) came out at 38.1 ± 3.36 µM.

Turning to `CCCCCCCCCC=O` [Decanal], the Ki in test [2] (setting [11]) was 42.4 µM; in test [1] (setting [9]), 16 µM. Also, the results for the half-inhibitory concentration (IC50) in test [2] (setting [12]) and in test [1] (setting [10]) were 51.3 ± 3.18 µM and 17.4 ± 1.3 µM, respectively.

`CCC/C=C\CCCCCCCOC(C)=O` [Z8-12:AC, (Z)-8-dodecenyl acetate]: the figures for the Ki in test [2] (setting [11]) and in test [3] were 14.4 µM and 1.1 µM, respectively. Besides, in test [2] (setting [12]), the IC50 turned out to be 17.4 ± 0.87 µM. Moreover, the “binding to rGmolGOBP1 (in words)” value in test [1] (competitive binding with 1-NPN) is “did not bind”.

`CCCCCC=O` [Hexanal]: in test [1], the 50% inhibitory concentration (IC50) came to 33.6 ± 2 µM and the affinity, expressed as Ki, was 30.9 µM.

In the case of `CCCCCCC(=O)OCC` [Ethyl heptanoate], the inhibitory constant (Ki) was 73.2 µM in test [2] (setting [11]) and 34.4 µM in test [1] (setting [9]). The half-maximal inhibitory concentration (IC50) was determined as 88.7 ± 3.01 µM in test [2] (setting [12]) and 37.4 ± 2.35 µM in test [1] (setting [10]).

As for `c1ccc(Nc2cccc3ccccc23)cc1` [1-NPN, 1-N-phenyl-naphthylamine], the Kd stood at 11.4 µM in test [4] and 4.73 µM in test [5].

As to `CCCC(=O)OCC` [Ethyl butyrate], in test [1] (setting [9]), the Ki is 33.2 µM. Moreover, the 50% inhibitory concentration (IC50) in test [1] (setting [10]) was determined as 36.1 ± 2.88 µM.

Consider `CCCCCCCCCCO` [decanol], for which the Ki is 11.3 ± 0.17 µM in test [6], 15.3 ± 1 µM in test [2], 15.6 ± 0.43 µM in test [7] and 39.6 ± 2.34 µM in test [8]. In test [6] (V111A versus wild-type rGmolGOBP2), the “affinity of V111A mutant versus wild-type (in words)” value is given as “no differences”. The “affinity of V114A mutant versus wild-type (in words)” value in test [7] (V114A versus wild-type rGmolGOBP2) was “no differences”. For the same compound, in test [8] (T9A versus wild-type rGmolGOBP2), the “decrease in affinity of T9A mutant” value is recorded as 3-5 fold.

For `CCC/C=C/CCCCCCCOC(C)=O` [E8-12:AC, (E)-8-dodecenyl acetate], the Ki in test [1] (setting [9]) was 8.85 µM; in test [3], 1.09 µM. Further, the concentration for half-maximal inhibition (IC50) in test [1] (setting [10]) stood at 10.5 ± 0.87 µM.

In test [2], `CC1=CCC2CC1C2(C)C` (stereo not drawn) [α-Pinene] displayed an IC50 of 51.7 ± 7.11 µM and an inhibitory constant (Ki) of 42.6 µM. In test [1], this compound returned an IC50 of 16.1 ± 1.22 µM and a Ki of 14.8 µM.

In the case of `CCCCCCCC=O` [Octanal], the Ki is 66.4 µM in test [2] (setting [11]) and 21.5 µM in test [1] (setting [9]). The IC50 turned out to be 80.4 ± 3.79 µM in test [2] (setting [12]) and 23.3 ± 1.43 µM in test [1] (setting [10]).

With `CC/C=C\CCO` [Cis-3-Hexen-1-ol], in test [1], the IC50 was 18.3 ± 1.55 µM and the Ki amounted to 16.8 µM.

In the case of `CCCCCCCCCC` [Decane], the Ki in test [1] (setting [9]) was 5.19 µM. For the same compound, the IC50 in test [1] (setting [10]) turned out to be 5.64 ± 0.69 µM.

For the compound `C=C/C(C)=C/CCC(=C)C` [α-Ocimene], the Ki was 44.1 µM in test [2] (setting [11]) and 12.4 µM in test [1] (setting [9]). Further, the IC50 in test [2] (setting [12]) worked out at 53.4 ± 4.91 µM; in test [1] (setting [10]), 13.5 ± 0.79 µM.

Take `CCCCCCOC(C)=O` [Hexyl acetate]: the Ki in test [2] (setting [11]) is 81.6 µM; in test [1] (setting [9]), 27.5 µM. Also, the half-maximal inhibitory concentration (IC50) stood at 98.8 ± 3.63 µM in test [2] (setting [12]) and 29.9 ± 4.11 µM in test [1] (setting [10]).

(Values after paper PMC4859520, “Binding Properties of General Odorant Binding Proteins from the Oriental Fruit Moth, Grapholita molesta (Busck) (Lepidoptera: Tortricidae)” (PLoS ONE, 2016).)
